In patent publication EP1194447B1, “NOVEL POTASSIUM CHANNELS AND GENES ENCODING THESE POTASSIUM CHANNELS” (NEUROSEARCH A/S, priority 1999, dated 2000):
Blank lines part the entries; values can stand above or below the compound they belong to.

Key:
KCNQ5 = biological target: T1, KCNQ5 (Homo sapiens, UniProt Q9NR82); assay: Two-electrode voltage clamp of KCNQ5 homomers expressed in Xenopus oocytes; format: cell-based; conditions: for effect on KCNQ5 currents: 10 µM, oocytes injected with KCNQ5 alone (no M1 receptor); for IC50: extracellular application, Xenopus oocytes, from plotted fit curves (Fig. 5A), means ± SEM of 4 to 12 measurements, read-out: IC50, inhibition of KCNQ5 homomers
T1 construct: expressed in transfected cells; host or cells: Xenopus oocytes injected with cRNA transcribed from the KCNQ5-containing pTLN vector
Description: Two-electrode voltage-clamp current traces from a Xenopus oocyte injected with KCNQ5 cRNA. […] Starting from a holding potential of -80 mV cells were clamped for 2 seconds to voltages between -80 and +40 mV, in +10 mV steps, followed by a constant test pulse to -30 mV; • Figs. 4A-G show the electrophysiological properties of KCNQ5. Both the splice variant I (found in brain) and splice variant III (found in muscle) were expressed in Xenopus oocytes and examined by two-electrode voltage clamping. Both variants activate slowly upon depolarisation, but form I (4A) initially activates slower than the muscle form III (4B). Starting from a holding potential of -80 mV, the voltage was stepped for 0.8 seconds to values between -100 and + 40 mV in steps of 10 mV, followed by a voltage step to -30 mV (see inset, panel A). Channel activation by depolarization was fitted (for 2 sec. steps) by a sum of three exponential functions. For a step to +20 mV, the rate constants were ô1 = 37. 2 ± 2.2 ms, ô2 = 246 ± 17 ms, and ô3 = 1112 ± 91 ms for splice variant I, while these constants were ô1 = 24.5 ± 0.8 ms, ô2 = 163 ± 6 ms, and ô3 = 1690 ± 46 ms (± SEM, n=16). This difference in kinetics also results in different curves when a typical M-current protocol is used (4C, variant I; 4D, variant III). Variant I induces currents that kinetically resemble M-currents. In this protocol, the membrane voltage is clamped for 1 second to voltages between -30 and -90 mV in steps of -10 mV, from a holding potential of -30 mV. This was followed by a step to -30 mV (panel C, inset). (4E, 4F), apparent open probabilities of variants I (4E) and variant III (4F) as a function of voltage obtained from tail current analysis as described in Methods. Mean values obtained from 12 oocytes are shown. Fitting a Boltzmann equation yielded V½ = -46 ± 1 mV and an apparent gating charge of z = 2.8 ± 0.1 for isoform I, and V½ = -48 ± 1 mV and an apparent gating charge of z = 2.5 ± 0.1 for isoform III. For this fit, values at potentials more positive than +10 mV were excluded, as these are probably affected by a second (inactivation) gating process which leads to a decrease of apparent Popen at more positive potentials. (4G), ion selectivity of KCNQ5 currents (variant I). Extracellular sodium was replaced by equimolar amounts of potassium. The reversal potential is shown as a function of the potassium concentration. […] Data are from 10 oocytes from 2 different batches; • Figs. 5A-C show the pharmacology of KCNQ5 and KCNQ3/5 heteromers. (5A) Inhibition of KCNQ5 homomers by extracellular linopirdine (down triangles), XE991 (up triangles) and TEA (squares). […] (5B) Niflumic acid alters the voltage dependence of the apparent popen. In the presence of 500 µM niflumic acid (open circles), the voltage dependence is shifted about 20 mV towards negative potentials. (5C) TEA sensitivity is altered in KCNQ3/5 heteromers. Coexpression of KCNQ5 and KCNQ3 (1:1) (diamonds) increased the IC50 value to 200 mM, coexpression with the KCNQ3 (T323Y) mutant (circles) decreased the IC50 to ~ 30 mM. […] The pulse protocol is shown in the inset of panel b. No effect of 10 µM muscarine or oxotremorine methiodide was found in oocytes injected with KCNQ5 alone; and • Figs. 7A-C show the interactions between KCNQ2 and KCNQ5 (7A, 7B) and KCNQ3 and KCNQ5 (7C): • (7A) currents at the end of a two second pulse to 0 mV from a holding potential of -80 mV of oocytes injected with different combinations of KCNQ cRNAs (always 10 ng total amount of RNA). The current amplitude elicited by co-injecting KCNQ2 and KCNQ5 could be explained by a linear superposition of currents. Co-injection of KCNQ5 with the dominant negative mutant KCNQ2(G279S) or of KCNQ2 with the equivalent mutant KCNQ5(G278S) lead to a roughly 50% reduction in current amplitude, which is consistent with a lack of interaction since only 50% of WT cRNA was injected; • (7B) normalized current traces of experiments used for panel (A). […]

KCNQ2/KCNQ3 channels = KCNQ2/KCNQ3 channels (Homo sapiens, UniProt O43525+O43526); conditions: 200 µM; cited from earlier work
[1] = system: KCNQ5 co-expressed with M1 receptors; assay: KCNQ5 currents in Xenopus oocytes co-expressing M1 receptors (two-electrode voltage clamp); format: cell-based, human; conditions: 10 µM muscarine, 3 minutes after applying; Fig. 6
Description: Two-electrode voltage-clamp current traces from a Xenopus oocyte injected with KCNQ5 cRNA. […] Starting from a holding potential of -80 mV cells were clamped for 2 seconds to voltages between -80 and +40 mV, in +10 mV steps, followed by a constant test pulse to -30 mV; • Figs. 4A-G show the electrophysiological properties of KCNQ5. […] Starting from a holding potential of -80 mV, the voltage was stepped for 0.8 seconds to values between -100 and + 40 mV in steps of 10 mV, followed by a voltage step to -30 mV (see inset, panel A). Channel activation by depolarization was fitted (for 2 sec. steps) by a sum of three exponential functions. For a step to +20 mV, the rate constants were ô1 = 37. […] In this protocol, the membrane voltage is clamped for 1 second to voltages between -30 and -90 mV in steps of -10 mV, from a holding potential of -30 mV. This was followed by a step to -30 mV (panel C, inset). (4E, 4F), apparent open probabilities of variants I (4E) and variant III (4F) as a function of voltage obtained from tail current analysis as described in Methods. Mean values obtained from 12 oocytes are shown. […] For this fit, values at potentials more positive than +10 mV were excluded, as these are probably affected by a second (inactivation) gating process which leads to a decrease of apparent Popen at more positive potentials. (4G), ion selectivity of KCNQ5 currents (variant I). […]

[2] = biological target: T2, KCNQ5 coexpressed with KCNQ3 (T323Y) mutant (Homo sapiens, UniProt O43525+Q9NR82, T323Y); assay: Two-electrode voltage clamp of KCNQ5 coexpressed with the KCNQ3 (T323Y) mutant in Xenopus oocytes; format: cell-based; conditions: coexpression of KCNQ5 with the KCNQ3 (T323Y) mutant; Fig. 5C; read-out: IC50 (TEA sensitivity)
T2 construct: expressed in transfected cells; host or cells: Xenopus oocytes co-injected with cRNAs
Description: Two-electrode voltage-clamp current traces from a Xenopus oocyte injected with KCNQ5 cRNA. […] Starting from a holding potential of -80 mV cells were clamped for 2 seconds to voltages between -80 and +40 mV, in +10 mV steps, followed by a constant test pulse to -30 mV; • Figs. 4A-G show the electrophysiological properties of KCNQ5. Both the splice variant I (found in brain) and splice variant III (found in muscle) were expressed in Xenopus oocytes and examined by two-electrode voltage clamping. Both variants activate slowly upon depolarisation, but form I (4A) initially activates slower than the muscle form III (4B). Starting from a holding potential of -80 mV, the voltage was stepped for 0.8 seconds to values between -100 and + 40 mV in steps of 10 mV, followed by a voltage step to -30 mV (see inset, panel A). Channel activation by depolarization was fitted (for 2 sec. steps) by a sum of three exponential functions. For a step to +20 mV, the rate constants were ô1 = 37. 2 ± 2.2 ms, ô2 = 246 ± 17 ms, and ô3 = 1112 ± 91 ms for splice variant I, while these constants were ô1 = 24.5 ± 0.8 ms, ô2 = 163 ± 6 ms, and ô3 = 1690 ± 46 ms (± SEM, n=16). This difference in kinetics also results in different curves when a typical M-current protocol is used (4C, variant I; 4D, variant III). Variant I induces currents that kinetically resemble M-currents. […]

T1 sequence (Q9NR82 36-932 limits assumed): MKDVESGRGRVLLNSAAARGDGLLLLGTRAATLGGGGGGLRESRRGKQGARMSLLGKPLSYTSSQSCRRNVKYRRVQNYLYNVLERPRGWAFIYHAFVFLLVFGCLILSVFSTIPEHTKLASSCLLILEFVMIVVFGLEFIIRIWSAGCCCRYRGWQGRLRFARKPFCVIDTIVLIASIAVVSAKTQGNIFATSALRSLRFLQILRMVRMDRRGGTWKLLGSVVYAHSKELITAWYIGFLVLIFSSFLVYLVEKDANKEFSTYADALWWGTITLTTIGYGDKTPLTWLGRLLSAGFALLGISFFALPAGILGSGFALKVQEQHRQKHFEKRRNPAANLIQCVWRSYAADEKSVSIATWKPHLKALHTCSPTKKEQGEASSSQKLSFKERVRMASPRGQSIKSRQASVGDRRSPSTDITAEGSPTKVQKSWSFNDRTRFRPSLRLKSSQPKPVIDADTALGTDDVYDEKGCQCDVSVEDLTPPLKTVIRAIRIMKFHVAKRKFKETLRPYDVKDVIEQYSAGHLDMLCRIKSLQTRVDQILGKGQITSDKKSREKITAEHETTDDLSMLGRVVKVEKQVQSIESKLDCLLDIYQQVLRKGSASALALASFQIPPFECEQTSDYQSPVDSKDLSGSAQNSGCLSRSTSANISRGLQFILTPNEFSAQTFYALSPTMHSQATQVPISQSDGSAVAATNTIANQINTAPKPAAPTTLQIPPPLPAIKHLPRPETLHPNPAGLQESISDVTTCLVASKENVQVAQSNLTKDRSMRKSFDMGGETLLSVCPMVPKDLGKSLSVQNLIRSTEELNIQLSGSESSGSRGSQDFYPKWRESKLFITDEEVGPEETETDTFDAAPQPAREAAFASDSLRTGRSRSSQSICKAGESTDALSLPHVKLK
Chain of KCNQ2/KCNQ3 channels (O43526 whole entry): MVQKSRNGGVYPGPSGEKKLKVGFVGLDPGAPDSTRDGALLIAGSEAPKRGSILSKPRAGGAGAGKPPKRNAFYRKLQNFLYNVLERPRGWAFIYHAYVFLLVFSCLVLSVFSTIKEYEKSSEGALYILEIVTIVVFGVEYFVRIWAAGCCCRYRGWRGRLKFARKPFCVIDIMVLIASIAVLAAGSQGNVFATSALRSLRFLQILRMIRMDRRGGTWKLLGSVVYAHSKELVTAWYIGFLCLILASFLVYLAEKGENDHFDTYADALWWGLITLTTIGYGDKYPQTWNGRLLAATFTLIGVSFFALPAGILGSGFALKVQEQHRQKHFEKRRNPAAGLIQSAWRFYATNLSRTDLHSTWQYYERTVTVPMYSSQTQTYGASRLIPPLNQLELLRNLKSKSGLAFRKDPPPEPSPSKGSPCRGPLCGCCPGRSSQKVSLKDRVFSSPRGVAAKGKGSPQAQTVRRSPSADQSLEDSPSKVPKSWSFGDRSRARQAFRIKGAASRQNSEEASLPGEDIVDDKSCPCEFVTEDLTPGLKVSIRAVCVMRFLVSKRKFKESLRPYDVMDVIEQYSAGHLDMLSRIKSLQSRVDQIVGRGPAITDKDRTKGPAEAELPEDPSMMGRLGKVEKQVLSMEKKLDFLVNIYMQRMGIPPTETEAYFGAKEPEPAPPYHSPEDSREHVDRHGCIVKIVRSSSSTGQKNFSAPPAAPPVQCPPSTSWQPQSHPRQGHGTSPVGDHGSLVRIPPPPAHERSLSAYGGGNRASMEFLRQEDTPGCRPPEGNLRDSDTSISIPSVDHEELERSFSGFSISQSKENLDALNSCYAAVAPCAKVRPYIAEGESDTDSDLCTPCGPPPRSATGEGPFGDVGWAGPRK
Chain of KCNQ2/KCNQ3 channels (O43525 whole entry): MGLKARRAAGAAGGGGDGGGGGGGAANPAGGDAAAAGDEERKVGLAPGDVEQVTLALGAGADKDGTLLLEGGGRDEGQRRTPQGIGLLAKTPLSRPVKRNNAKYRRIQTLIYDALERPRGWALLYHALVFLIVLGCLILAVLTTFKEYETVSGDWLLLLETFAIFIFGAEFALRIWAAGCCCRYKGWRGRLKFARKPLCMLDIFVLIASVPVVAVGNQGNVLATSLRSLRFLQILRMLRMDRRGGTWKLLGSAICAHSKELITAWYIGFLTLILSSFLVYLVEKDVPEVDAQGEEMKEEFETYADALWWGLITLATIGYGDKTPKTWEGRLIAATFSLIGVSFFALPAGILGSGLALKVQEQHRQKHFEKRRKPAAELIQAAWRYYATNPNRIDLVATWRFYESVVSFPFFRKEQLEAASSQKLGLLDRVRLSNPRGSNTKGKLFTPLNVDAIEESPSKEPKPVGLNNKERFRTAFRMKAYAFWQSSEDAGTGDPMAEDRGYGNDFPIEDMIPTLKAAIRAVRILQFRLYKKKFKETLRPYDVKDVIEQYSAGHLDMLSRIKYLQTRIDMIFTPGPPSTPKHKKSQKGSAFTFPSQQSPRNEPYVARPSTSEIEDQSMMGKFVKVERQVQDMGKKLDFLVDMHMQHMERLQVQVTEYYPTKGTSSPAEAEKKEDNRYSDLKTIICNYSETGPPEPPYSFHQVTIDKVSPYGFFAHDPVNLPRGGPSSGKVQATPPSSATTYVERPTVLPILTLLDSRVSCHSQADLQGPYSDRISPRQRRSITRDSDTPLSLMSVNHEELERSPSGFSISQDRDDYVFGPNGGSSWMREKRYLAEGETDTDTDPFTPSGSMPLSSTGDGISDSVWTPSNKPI
T2 sequence (Q9NR82 36-932 limits assumed): as the sequence (Q9NR82 36-932 limits assumed) above
T2 sequence (O43525 whole entry T323Y): as the sequence (O43525 whole entry) above, with T323Y counted along it

shift of the voltage dependence of the apparent popen towards negative potentials (KCNQ5; 500 µM niflumic acid, Fig. 5B): about 20 mV
SMILES: O=C(O)c1cccnc1Nc1cccc(C(F)(F)F)c1 [Niflumic acid]

SMILES: C[N+](C)(C)CC#CCN1CCCC1=O [oxotremorine methiodide]
effect on KCNQ5 currents (KCNQ5): No effect

inhibition at 200 µM (KCNQ5; 200 µM Linopirdine in ND98): ~80%
IC50 (KCNQ5): 0.051 ± 0.005 mM
SMILES: O=C1N(c2ccccc2)c2ccccc2C1(Cc1ccncc1)Cc1ccncc1 [Linopirdine, 1,3-dihydro-1-phenyl-3,3-bis-(4-pyridylmethyl)-2H-indol-2-one]
inhibition of KCNQ2/KCNQ3 channels (KCNQ2/KCNQ3 channels): nearly completely inhibits

SMILES: C[C@@H]1O[C@H](C[N+](C)(C)C)C[C@H]1O [muscarine]
effect on KCNQ5 currents by stimulating co-expressed M1 receptors [1]: inhibition of KCNQ5 currents
effect on KCNQ5 currents (KCNQ5): No effect

SMILES: [Ba+2] [Ba^++]
inhibition of KCNQ5 currents (KCNQ5; 5 mM Ba++): more than 80%

SMILES: CC[N+](CC)(CC)CC [TEA]
IC50 (KCNQ5): 71 ± 17 mM
IC50 [2]: ~30 mM
